Measurements as given in the NIST ThermoML archive (doi:10.1021/je060271a).

Details: Liquid, Vibrating tube method

CCCCCCCC(=O)OCC(COC(=O)CCCCCCC)(COC(=O)CCCCCCC)COC(=O)CCCCCCC [pentaerythritol tetraoctanoate]
Details	mass density [kg/m3]
323.15 K, 31267 kPa	960.2
323.15 K, 31296 kPa	960.3
323.15 K, 31325 kPa	960.2
323.15 K, 31360 kPa	960.3
323.15 K, 31389 kPa	960.2
323.15 K, 31418 kPa	960.1
323.15 K, 31452 kPa	960.2
323.15 K, 31481 kPa	960.3
323.15 K, 31510 kPa	960.4
323.15 K, 31540 kPa	960.4
323.15 K, 31575 kPa	960.3
323.15 K, 31604 kPa	960.4
323.15 K, 31640 kPa	960.3
323.15 K, 31669 kPa	960.4
323.15 K, 31699 kPa	960.3
323.15 K, 31731 kPa	960.4
323.15 K, 31761 kPa	960.4
323.15 K, 31785 kPa	960.4
323.15 K, 31827 kPa	960.5
323.15 K, 31856 kPa	960.5
323.15 K, 31892 kPa	960.5
323.15 K, 31922 kPa	960.5
323.15 K, 31952 kPa	960.6
323.15 K, 31987 kPa	960.6
323.15 K, 32018 kPa	960.7
323.15 K, 32048 kPa	960.5
323.15 K, 32084 kPa	960.6
323.15 K, 32115 kPa	960.6
323.15 K, 32147 kPa	960.7
323.15 K, 32178 kPa	960.7
323.15 K, 32208 kPa	960.8
323.15 K, 32244 kPa	960.7
323.15 K, 32275 kPa	960.8
323.15 K, 32305 kPa	960.6
323.15 K, 32343 kPa	960.8
323.15 K, 32374 kPa	960.8
323.15 K, 32404 kPa	960.6
323.15 K, 32442 kPa	960.8
323.15 K, 32467 kPa	960.8
323.15 K, 32504 kPa	961
323.15 K, 32542 kPa	960.9
323.15 K, 32574 kPa	960.9
323.15 K, 32605 kPa	961
323.15 K, 32642 kPa	960.9
323.15 K, 32706 kPa	961
323.15 K, 32744 kPa	961.1
323.15 K, 32776 kPa	961.1
323.15 K, 32838 kPa	961.1
323.15 K, 32877 kPa	961.1
323.15 K, 32909 kPa	961
323.15 K, 32941 kPa	961.1
323.15 K, 32980 kPa	961
323.15 K, 33012 kPa	961.2
323.15 K, 33050 kPa	961.1
323.15 K, 33083 kPa	961.2
323.15 K, 33115 kPa	961.2
323.15 K, 33147 kPa	961.2
323.15 K, 33186 kPa	961.2
323.15 K, 33219 kPa	961.3
323.15 K, 33258 kPa	961.2
323.15 K, 33291 kPa	961.3
323.15 K, 33324 kPa	961.3
323.15 K, 33363 kPa	961.4
323.15 K, 33396 kPa	961.5
323.15 K, 33429 kPa	961.3
323.15 K, 33470 kPa	961.4
323.15 K, 33503 kPa	961.3
323.15 K, 33536 kPa	961.6
323.15 K, 33576 kPa	961.4
323.15 K, 33610 kPa	961.5
323.15 K, 33644 kPa	961.5
323.15 K, 33685 kPa	961.5
323.15 K, 33720 kPa	961.6
323.15 K, 33755 kPa	961.5
323.15 K, 33797 kPa	961.6
323.15 K, 33833 kPa	961.5
323.15 K, 33870 kPa	961.6
323.15 K, 33916 kPa	961.7
323.15 K, 33952 kPa	961.7
323.15 K, 33982 kPa	961.7
323.15 K, 34010 kPa	961.8
323.15 K, 34034 kPa	961.7
323.15 K, 34058 kPa	961.7
323.15 K, 34086 kPa	961.7
323.15 K, 34110 kPa	961.8
323.15 K, 34134 kPa	961.8
323.15 K, 34159 kPa	961.8
323.15 K, 34188 kPa	961.9
323.15 K, 34213 kPa	961.9
323.15 K, 34242 kPa	961.8
323.15 K, 34268 kPa	961.9
323.15 K, 34294 kPa	961.8
323.15 K, 34321 kPa	962.1
323.15 K, 34354 kPa	962
323.15 K, 34382 kPa	961.9
323.15 K, 34411 kPa	962
323.15 K, 34448 kPa	962.1
323.15 K, 34472 kPa	961.9
323.15 K, 34473 kPa	962
323.15 K, 34474 kPa	962
323.16 K, 603.67 kPa	941
323.16 K, 875.73 kPa	941.2
323.16 K, 892.76 kPa	941.2
323.16 K, 910.31 kPa	941.3
323.16 K, 929.42 kPa	941.3
323.16 K, 952.34 kPa	941.3
323.16 K, 1561.9 kPa	941.8
323.16 K, 1605.8 kPa	941.7
323.16 K, 1638 kPa	941.7
323.16 K, 1659.1 kPa	941.7
323.16 K, 1674.9 kPa	941.8
323.16 K, 1688.1 kPa	941.8
323.16 K, 2395.8 kPa	942.3
323.16 K, 2562.1 kPa	942.5
323.16 K, 2571.5 kPa	942.4
323.16 K, 2579.5 kPa	942.4
323.16 K, 2587.6 kPa	942.5
323.16 K, 3525.4 kPa	943
323.16 K, 3596.1 kPa	943.1
323.16 K, 3609.1 kPa	943.2
323.16 K, 3622.8 kPa	943.1
323.16 K, 3638.9 kPa	943.2
323.16 K, 3652.2 kPa	943.2
323.16 K, 3663.5 kPa	943.2
323.16 K, 3682.5 kPa	943.1
323.16 K, 3696.6 kPa	943.1
323.16 K, 3864.6 kPa	943.3
323.16 K, 3879.5 kPa	943.3
323.16 K, 3913.1 kPa	943.3
323.16 K, 3928.7 kPa	943.4
323.16 K, 3945.2 kPa	943.3
323.16 K, 3960.6 kPa	943.3
323.16 K, 3976.2 kPa	943.4
323.16 K, 3991.8 kPa	943.3
323.16 K, 4010.5 kPa	943.3
323.16 K, 4025.5 kPa	943.3
323.16 K, 4044.2 kPa	943.5
323.16 K, 4061 kPa	943.5
323.16 K, 4225.4 kPa	943.5
323.16 K, 4242.4 kPa	943.6
323.16 K, 4245.7 kPa	943.5
323.16 K, 4456.7 kPa	943.7
323.16 K, 4480.6 kPa	943.7
323.16 K, 4501.4 kPa	943.6
323.16 K, 4587.3 kPa	943.7
323.16 K, 4633.2 kPa	943.7
323.16 K, 4694.8 kPa	943.8
323.16 K, 4742.6 kPa	943.9
